From US20150329498A1, “IRAK INHIBITORS AND USES THEREOF” (Nimbus Iris, Inc., priority 2014, published 2015)

Target: T1, IRAK4 (Homo sapiens, UniProt Q9NWZ3)
T1 construct: purchased CARNA Bioscience 09-145
T1 sequence (Q9NWZ3 1-460): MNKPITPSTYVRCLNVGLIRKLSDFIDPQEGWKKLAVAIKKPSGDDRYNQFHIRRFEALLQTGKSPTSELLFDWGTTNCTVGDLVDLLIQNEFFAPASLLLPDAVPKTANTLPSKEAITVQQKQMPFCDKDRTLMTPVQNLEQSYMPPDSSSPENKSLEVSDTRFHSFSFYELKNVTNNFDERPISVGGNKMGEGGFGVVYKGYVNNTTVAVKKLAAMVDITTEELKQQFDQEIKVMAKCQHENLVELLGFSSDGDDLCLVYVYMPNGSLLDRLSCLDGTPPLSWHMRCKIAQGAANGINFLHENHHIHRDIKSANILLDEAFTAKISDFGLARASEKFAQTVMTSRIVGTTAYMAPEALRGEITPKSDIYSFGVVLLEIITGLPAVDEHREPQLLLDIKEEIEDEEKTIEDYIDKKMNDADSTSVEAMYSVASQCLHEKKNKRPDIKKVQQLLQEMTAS
Assay: IRAK-4 activity inhibition assay (Caliper)
Assay type: biochemical
Conditions: 3.5 nM IRAK4, 1.5 μM Peptide 8, 37 μM ATP
Description: A 1x kinase base buffer was prepared from 50 mM HEPES, pH 7.5 and 0.0015% Brij-35. A stop buffer was prepared from 100 mM HEPES, pH 7.5, 0.015% Brij-35, 0.2% Coating Reagent #3, and 50 mM EDTA.
Test compound was diluted to 50× of the final desired highest inhibitor concentration in reaction by 100% DMSO. 100 ul of this compound dilution was transferred to a well in a 96-well plate. For example, if desired highest inhibitor concentration in IC50 determination is 100 uM, then prepare 5000 uM of compound DMSO solution in this step.
Test compound was serially diluted by transferring 30 μl to 60 μl of 100% DMSO in the next well and so forth for a total of 10 concentrations. 100 μl of 100% DMSO was added to two empty wells for no compound control and no enzyme control in the same 96-well plate.
A new 96-well plate was marked as intermediate plate. 5 μl of compound serial dilution was transferred from source plate to the corresponding wells of the intermediate plate. 45 μl of 1x kinase base buffer (KB buffer) was added to each well of the intermediate plate. The intermediate plate was placed for 10 min on a shaker.
5 μl of each well was transferred from the 96-well intermediate plate to a 384-well plate in duplicates. For example, A1 of the 96-well plate is transferred to A1 and A2 of the 384-well plate. A2 of the 96-well plate is transferred to A3 and A4 of the 384-well plate, and so on.
IRAK4 and DTT in 1x kinase base buffer was added. The 2.5x enzyme mix contained 8.8 nM IRAK4 and 5 mM DTT.
Peptide 8, ATP, MgCl2 and MnCl2 were added in the 1x kinase base buffer. The 2.5x peptide mix contained 3.75 μM peptide 8, 92.5 μM ATP, 12.5 mM MgCl2 and 2.5 mM MnCl2.
Assay plate already contained 5 μl of compound in 10% DMSO. Added 10 μl of 2.5x enzyme solution to each well of the 384-well assay plate, except no enzyme control wells. The final concentration of IRAK4 in reaction was 3.5 nM. Added 10 μl of 1x kinase base buffer to no enzyme control wells in the assay plate. Incubated at room temperature for 10 min.
Added 10 μl of 2.5x peptide solution to each well of the 384-well assay plate. The final concentration of Peptide 8 and ATP was 1.5 μM and 37 μM, respectively. Incubated at for 40 minutes. Added 25 μl of stop buffer to stop reaction. Collected data on Caliper.
Copied conversion % data from Caliper program. Converted conversion % values to percent inhibition values. Percent inhibition=(max−conversion %)/(max−min)*100, where “max” means the conversion % of DMSO control and “min” means the conversion % of no enzyme control.
The compound numbers correspond to the compound numbers in Table 1. Compounds having an activity designated as “A” provided an IC50≦5 μM; compounds having an activity designated as “B” provided an IC50 of 5-20 μM; compounds having an activity designated as “C” provided an IC50 of 20-50 μM; and compounds having an activity designated as “D” provided an IC50≧50 μM. “NA” stands for “not assayed.”

With `c1ccc2c(N[C@H]3CC[C@H](N4CCOCC4)CC3)ncnc2c1` [Compound I-1, N-((1r,4r)-4-morpholinocyclohexyl)quinazolin-4-amine] the IC50 was ≤ 5 µM.
`Brc1ccc2ncnc(O[C@H]3CC[C@H](N4CCOCC4)CC3)c2c1` [Compound I-4, 4-((1r,4r)-4-((6-bromoquinazolin-4-yl)oxy)cyclohexyl)morpholine] was tested, and the IC50 was ≤ 5 µM.
In the case of `FC(F)(F)c1ccc2ncnc(O[C@H]3CC[C@H](N4CCOCC4)CC3)c2c1` [Compound I-6, 4-((1r,4r)-4-((6-(trifluoromethyl)quinazolin-4-yl)oxy)cyclohexyl)-morpholine], the IC50 is reported as ≤ 5 µM.
`N#Cc1ccc2ncnc(O[C@H]3CC[C@H](N4CCOCC4)CC3)c2c1` [Compound I-8, 4-(((1r,4r)-4-morpholinocyclohexyl)oxy)quinazoline-6-carbonitrile] was tested, and the IC50 was ≤ 5 µM.
With `NC(=O)c1ccc2ncnc(O[C@H]3CC[C@H](N4CCOCC4)CC3)c2c1` [Compound I-9, 4-(((1r,4r)-4-morpholinocyclohexyl)oxy)quinazoline-6-carboxamide] the IC50 was ≤ 5 µM.
`FC(F)(F)c1ccc2ncnc(N[C@H]3CC[C@H](N4CCOCC4)CC3)c2c1` [Compound I-12, N-((1r,4r)-4-morpholinocyclohexyl)-6-(trifluoromethyl)-quinazolin-4-amine] was tested, and the IC50 was ≤ 5 µM.
`CN(CC(=O)N1CCCC1)[C@H]1CC[C@H](Nc2ncnc3ccc(C#N)cc23)CC1` [Compound I-13, 4-(((1r,4r)-4-(methyl(2-oxo-2-(pyrrolidin-1-yl)ethyl)amino)-cyclohexyl)amino)quinazoline-6-carbonitrile] was tested, and the IC50 was ≤ 5 µM.
With `OCC(O)c1ccc2ncnc(O[C@H]3CC[C@H](N4CCOCC4)CC3)c2c1` (some centres unmarked) [Compound I-17, 1-(4-(((1r,4r)-4-morpholinocyclohexyl)oxy)quinazolin-6-yl)ethane-1,2-diol] the IC50 was ≤ 5 µM.
For `CCc1ccc2ncnc(O[C@H]3CC[C@H](N4CCOCC4)CC3)c2c1` [Compound I-18, 4-((1r,4r)-4-((6-ethylquinazolin-4-yl)oxy)cyclohexyl) morpholine], the IC50 was ≤ 5 µM.
`OCc1ccc2ncnc(O[C@H]3CC[C@H](N4CCOCC4)CC3)c2c1` [Compound I-19, (4-(((1r,4r)-4-morpholinocyclohexyl)oxy)quinazolin-6-yl)methanol] was tested, and the IC50 was ≤ 5 µM.
With `OCC(O)c1ccc2ncnc(N[C@H]3CC[C@H](N4CCOCC4)CC3)c2c1` (some centres unmarked) [Compound I-21, 1-(4-(((1r,4r)-4-morpholinocyclohexyl)amino)quinazolin-6-yl)-ethane-1,2-diol] the IC50 was ≤ 5 µM.
`OCc1ccc2ncnc(N[C@H]3CC[C@H](N4CCOCC4)CC3)c2c1` [Compound I-23, (4-(((1r,4r)-4-morpholinocyclohexyl)amino)quinazolin-6-yl)methanol] was tested, and the IC50 was ≤ 5 µM.
In the case of `COCc1ccc2ncnc(N[C@H]3CC[C@H](N4CCOCC4)CC3)c2c1` [Compound I-32, 6-(methoxymethyl)-N-((1r,4r)-4-morpholinocyclohexyl)quina-zolin-4-amine], the IC50 is reported as ≤ 5 µM.
In the case of `COCCc1ccc2ncnc(N[C@H]3CC[C@H](N4CCOCC4)CC3)c2c1` [Compound I-33, 6-(2-methoxyethyl)-N-((1r,4r)-4-morpholinocyclohexyl)-quinazolin-4-amine], the IC50 is reported as ≤ 5 µM.
`CC1(C)CCN([C@H]2CC[C@H](Nc3ncnc4ccc(C#N)cc34)CC2)CC1` [Compound I-37, 4-(((1r,4r)-4-(4,4-dimethylpiperidin-1-yl)cyclohexyl)amino)-quinazoline-6-carbonitrile] was tested, and the IC50 was ≤ 5 µM.
In the case of `OC/C=C\c1ccc2ncnc(N[C@H]3CC[C@H](N4CCOCC4)CC3)c2c1` [Compound I-42, (Z)-3-(4-(((1r,4r)-4-morpholinocyclohexyl)amino)quinazolin-6-yl)prop-2-en-1-ol], the IC50 is reported as ≤ 5 µM.
`C=Cc1ccc2ncnc(N[C@H]3CC[C@H](N4CCC(C)(C)CC4)CC3)c2c1` [Compound I-43, N-((1r,4r)-4-(4,4-dimethylpiperidin-1-yl)cyclohexyl)-6-vinyl-quinazolin-4-amine] was tested, and the IC50 was ≤ 5 µM.
